# Test system: HBV
# Assay: HBV replication inhibition assay (BDNA assay) in HepG2.2.15 cells
# Format: cell-based
# Settings: HBV replication assay (BDNA assay), HepG2.2.15 cells; read-out: DNA EC50
# In short: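 HepG2.2.15 cells with stably integrated HBV were treated with serially diluted compounds at 0.5% DMSO for 6 days, with medium and compound refreshed at day 3. Encapsidated HBV DNA from DNase-treated supernatant was quantified by branched DNA assay. EC50 came from % inhibition versus DMSO, fitted non-linearly.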
row,Structure (SMILES),EC50 [µM]
1,"C[C@@H]1Cc2nn3c(c2CN1C(=O)Nc1ccc(F)c(C(F)(F)F)c1)C(=O)N(C)OC(CN)C3 (stereo in doubt) [Compound 116_D2, (4R*,9R)-4-(aminomethyl)-N-(4-fluoro-3-(trifluoromethyl)phenyl)-2,9-dimethyl-1-oxo-1,4,5,8,9,11-hexahydropyrido[4′,3′:3,4]pyrazolo[5,1-d][1,2,5]oxadiazepine-10(2H)-carboxamide]",0.001 to 0.1
2,"C[C@@H]1Cc2nn3c(c2CN1C(=O)Nc1ccc(F)c(Br)c1)C(=O)N(C)OC(CN)C3 (stereo in doubt) [Compound 117_D2, (4R*,9R)-4-(aminomethyl)-N-(3-bromo-4-fluorophenyl)-2,9-dimethyl-1-oxo-1,4,5,8,9,11-hexahydropyrido[4′,3′:3,4]pyrazolo[5,1-d][1,2,5]oxadiazepine-10(2H)-carboxamide]",0.001 to 0.1
3,"C[C@@H]1Cc2nn3c(c2CN1C(=O)Nc1ccc(F)c(Br)c1)C(=O)N(C)OC(COCC(F)F)C3 (stereo in doubt) [Compound 122_D2, (4R*,9R)—N-(3-bromo-4-fluorophenyl)-4-((2,2-difluoroethoxy)methyl)-2,9-dimethyl-1-oxo-1,4,5,8,9,11-hexahydropyrido[4′,3′:3,4]pyrazolo[5,1-d][1,2,5]oxadiazepine-10(2H)-carboxamide]",0.001 to 0.1
4,"C[C@@H]1Cc2nn3c(c2CN1C(=O)Nc1ccnc(Br)c1F)C(=O)N(C)OC(COCC(F)F)C3 (stereo in doubt) [Compound 123_D1, (4S*,9R)—N-(2-bromo-3-fluoropyridin-4-yl)-4-((2,2-difluoroethoxy)methyl)-2,9-dimethyl-1-oxo-1,4,5,8,9,11-hexahydropyrido[4′,3′:3,4]pyrazolo[5,1-d][1,2,5]oxadiazepine-10(2H)-carboxamide]",0.1 to 0.5
5,"C[C@@H]1Cc2nn3c(c2CN1C(=O)Nc1ccnc(Br)c1F)C(=O)N(C)OC(COCC(F)F)C3 (stereo in doubt) [Compound 123_D2, (4R*,9R)—N-(2-bromo-3-fluoropyridin-4-yl)-4-((2,2-difluoroethoxy)methyl)-2,9-dimethyl-1-oxo-1,4,5,8,9,11-hexahydropyrido[4′,3′:3,4]pyrazolo[5,1-d][1,2,5]oxadiazepine-10(2H)-carboxamide]",0.001 to 0.1
6,"C[C@@H]1Cc2nn3c(c2CN1C(=O)Nc1ccc(F)c(C#N)c1)C(=O)N(C)OC(COCC(F)F)C3 (stereo in doubt) [Compound 124_D2, (4R*,9R)—N-(3-cyano-4-fluorophenyl)-4-((2,2-difluoroethoxy)methyl)-2,9-dimethyl-1-oxo-1,4,5,8,9,11-hexahydropyrido[4′,3′:3,4]pyrazolo[5,1-d][1,2,5]oxadiazepine-10(2H)-carboxamide]",0.001 to 0.1
7,"Cc1cc(NC(=O)N2Cc3c(nn4c3C(=O)N(C)OC(COCC(F)F)C4)C[C@H]2C)ccc1F (stereo in doubt) [Compound 125_D2, (4R*,9R)-4-((2,2-difluoroethoxy)methyl)-N-(4-fluoro-3-methylphenyl)-2,9-dimethyl-1-oxo-1,4,5,8,9,11-hexahydropyrido[4′,3′:3,4]pyrazolo[5,1-d][1,2,5]oxadiazepine-10(2H)-carboxamide]",0.001 to 0.1
8,"C[C@@H]1Cc2nn3c(c2CN1C(=O)Nc1ccc(F)c(C(F)(F)F)c1)C(=O)N(C)OC(COCC(F)F)C3 (stereo in doubt) [Compound 126_D1, (4S*,9R)-4-((2,2-difluoroethoxy)methyl)-N-(4-fluoro-3-(trifluoromethyl)phenyl)-2,9-dimethyl-1-oxo-1,4,5,8,9,11-hexahydropyrido[4′,3′:3,4]pyrazolo[5,1-d][1,2,5]oxadiazepine-10(2H)-carboxamide]",0.1 to 0.5
9,"C[C@@H]1Cc2nn3c(c2CN1C(=O)Nc1ccc(F)c(C(F)(F)F)c1)C(=O)N(C)OC(COCC(F)F)C3 (stereo in doubt) [Compound 126_D2, (4R*,9R)-4-((2,2-difluoroethoxy)methyl)-N-(4-fluoro-3-(trifluoromethyl)phenyl)-2,9-dimethyl-1-oxo-1,4,5,8,9,11-hexahydropyrido[4′,3′:3,4]pyrazolo[5,1-d][1,2,5]oxadiazepine-10(2H)-carboxamide]",0.001 to 0.1

# Same assay, conditions: Hepatitis B virus, HepG2.2.15, HBV replication assay (BDNA assay), HepG2.2.15 cells; read-out: DNA EC50
row,Structure (SMILES),EC50 [µM]
1,"C[C@@H]1Cc2nn3c(c2CN1C(=O)Nc1ccc(F)c(C(F)(F)F)c1)C(=O)N(C)OC(CN)C3 (stereo in doubt) [Compound 116_D1, (4S*,9R)-4-(aminomethyl)-N-(4-fluoro-3-(trifluoromethyl)phenyl)-2,9-dimethyl-1-oxo-1,4,5,8,9,11-hexahydropyrido[4′,3′:3,4]pyrazolo[5,1-d][1,2,5]oxadiazepine-10(2H)-carboxamide]",0.001 to 0.1
2,"C[C@@H]1Cc2nn3c(c2CN1C(=O)Nc1ccc(F)c(Br)c1)C(=O)N(C)OC(CN)C3 (stereo in doubt) [Compound 117_D1, (4S*,9R)-4-(aminomethyl)-N-(3-bromo-4-fluorophenyl)-2,9-dimethyl-1-oxo-1,4,5,8,9,11-hexahydropyrido[4′,3′:3,4]pyrazolo[5,1-d][1,2,5]oxadiazepine-10(2H)-carboxamide]",0.001 to 0.1
3,"C[C@@H]1Cc2nn3c(c2CN1C(=O)Nc1ccc(F)c(Cl)c1)C(=O)N(C)OC(COCC(F)F)C3 (stereo in doubt) [Compound 121_D2, (4R*,9R)—N-(3-chloro-4-fluorophenyl)-4-((2,2-difluoroethoxy)methyl)-2,9-dimethyl-1-oxo-1,4,5,8,9,11-hexahydropyrido[4′,3′:3,4]pyrazolo[5,1-d][1,2,5]oxadiazepine-10(2H)-carboxamide]",0.001 to 0.1
4,"C[C@@H]1Cc2nn3c(c2CN1C(=O)Nc1ccc(F)c(Br)c1)C(=O)N(C)OC(COCC(F)F)C3 (stereo in doubt) [Compound 122_D1, (4S*,9R)—N-(3-bromo-4-fluorophenyl)-4-((2,2-difluoroethoxy)methyl)-2,9-dimethyl-1-oxo-1,4,5,8,9,11-hexahydropyrido[4′,3′:3,4]pyrazolo[5,1-d][1,2,5]oxadiazepine-10(2H)-carboxamide]",0.001 to 0.1
5,"C[C@@H]1Cc2nn3c(c2CN1C(=O)Nc1ccc(F)c(C#N)c1)C(=O)N(C)OC(COCC(F)F)C3 (stereo in doubt) [Compound 124_D1, (4S*,9R)—N-(3-cyano-4-fluorophenyl)-4-((2,2-difluoroethoxy)methyl)-2,9-dimethyl-1-oxo-1,4,5,8,9,11-hexahydropyrido[4′,3′:3,4]pyrazolo[5,1-d][1,2,5]oxadiazepine-10(2H)-carboxamide]",0.001 to 0.1
6,"Cc1cc(NC(=O)N2Cc3c(nn4c3C(=O)N(C)OC(COCC(F)F)C4)C[C@H]2C)ccc1F (stereo in doubt) [Compound 125_D1, (4S*,9R)-4-((2,2-difluoroethoxy)methyl)-N-(4-fluoro-3-methylphenyl)-2,9-dimethyl-1-oxo-1,4,5,8,9,11-hexahydropyrido[4′,3′:3,4]pyrazolo[5,1-d][1,2,5]oxadiazepine-10(2H)-carboxamide]",0.001 to 0.1
7,"C[C@@H]1Cc2nn3c(c2CN1C(=O)Nc1cc(Cl)c(F)cc1F)C(=O)N(C)OC(COCC(F)F)C3 (stereo in doubt) [Compound 127_D2, (4R*,9R)—N-(5-chloro-2,4-difluorophenyl)-4-((2,2-difluoroethoxy)methyl)-2,9-dimethyl-1-oxo-1,4,5,8,9,11-hexahydropyrido[4′,3′:3,4]pyrazolo[5,1-d][1,2,5]oxadiazepine-10(2H)-carboxamide]",0.001 to 0.1
